In patent publication US11958859B2, “Use of pyridoxal acetal salts as water-triggered pro-fragrances” (Florida Gulf Coast University Board of Trustees, priority 2018, dated 2024):

What was measured:
[1] = Hydrolysis (acetal cleavage) of pyridoxal acetal salts in D2O/DMSO-d6, release of the alcohol monitored by time-dependent 1H NMR; type: physicochemical; conditions: for release of alcohol from the respective pyridoxal acetal: 0.2 M, 30% D2O in DMSO-d6, after 22 hours
Procedure: The hydrolysis of the target alcohol from the pyridoxal acetal salt in the presence of D2O was monitored by ^1H NMR spectroscopy. This was accomplished by comparing the formation of hemiacetal C—H peak to the loss of the acetal C—H peak. For substrate 3a, the integration of the acetal C—H peak at 6.58 ppm was compared to the integration of the pyridoxal hemiacetal C—H peak at 6.41 ppm hourly to determine conversion. A stack plot of the NMR spectra for 50% D2O solution in DMSO-d6 over 20 hours is illustrated in FIG. 2.
To determine the kinetics of the hydrolysis with respect to the concentration of water, acetal 3a was exposed to varying concentrations of D2O The release of ethanol from 3a was measured at concentrations of 25%, 35%, 50%, and 100% D2O in DMSO-d6 and is plotted in FIG. 3. […] The 100% D2O trial provides full cleavage after 10 hours whereas a lowest concentration of D2O (25%) provides the slowest release at only 28% cleaved after 25 hours. The 50% D2O trial provided 74% release after 25 hours and the 35% D2O trial provided 42% release.
The rate of release for ethanol (blue), isopropanol (red), 2-phenylethanol (green), and geraniol (purple) were monitored at a 0.2 M concentration of 30% D2O in DMSO-d6 from the respective pyridoxal acetal. […] In all cases, the acetals hydrolyze to release the target molecule and pyridoxal HCl quantitatively. Since other fragrance delivery systems can lose material in side reactions (H. Q. N. Gunaratne et al., Chem. Commun., 2015, 51, 4455), the high fidelity in the release for these alcohols is significant.
The acetal cleavage was measured by comparing the integration of Ha to Hb whereas Hb/(Ha+Hb) provides the percent completion for the acetal cleavage for 3a and 3b. The stack plots in FIGS. 7-11 provide a visual counterpart to the graphs. 3c had some overlap between Ha and Hb so the fully separated methyl groups of the isopropyl were integrated instead.
3a (0.1636 mmol) was dissolved in 0.4 mL of DMSO-d6 (except for 100% D2O) and varying amounts of D2O were added, as shown in the table below (see corresponding stack plots in FIGS. 7-11).

| melting point [°C] | release of alcohol from the respective pyridoxal acetal [1] [%] | acetal cleaved (release of ethanol) ([1]; 25% D2O in DMSO-d6, after 25 hours) [%] | release of ethanol ([1]; 35% D2O in DMSO-d6 (time not restated; 25 hours implied)) [%] | release of ethanol ([1]; 50% D2O in DMSO-d6, after 25 hours) [%] | cleavage of acetal (release of ethanol) ([1]; 100% D2O, after 10 hours, 1H NMR) | SMILES | dependence of release rate on water concentration ([1]; 25%, 35%, 50%, 100% D2O in DMSO-d6, FIG. 3) |
| --- | --- | --- | --- | --- | --- | --- | --- |
| 168 to 172 | – | – | – | – | – | Cc1ncc2c(c1O)C(OCCc1ccccc1)OC2.Cl (stereo not shown) | – |
| 97 to 103 | 35 | 28 | 42 | 74 | full cleavage | CCOC1OCc2cnc(C)c(O)c21.Cl (stereo not shown) [3a, 1-ethoxy-7-hydroxy-6-methyl-1,3-dihydrofuro[3,4-c]pyridin-5-ium chloride] | rate increases with higher concentrations of D2O |
| 116 to 121 | 37 | – | – | – | – | Cc1ncc2c(c1O)C(OC(C)C)OC2.Cl (stereo not shown) [3c, 7-hydroxy-1-isopropoxy-6-methyl-1,3-dihydrofuro[3,4-c]pyridin-5-ium chloride] | – |
